Data set [1] relates to spontaneously hypertensive rats. In words: Antihypertensive activity: systolic blood pressure measured indirectly on conscious SHR after peroral dosing. The class given is in vivo, rat. The following applies: for Systolic Blood Pressure, Pretreatment: SHR (male, 13 months, 2 per sample), before 35 mg/kg peroral single dose; for Systolic Blood Pressure, 4 hrs after administration / Δ Blood Pressure: SHR; for Systolic Blood Pressure, 4 hrs after administration: 4 hours after 35 mg/kg peroral single dose; for Δ Blood Pressure: 4 hours after 35 mg/kg peroral single dose versus pretreatment. The protocol: The antihypertensive activity of part of the amino acid derivatives prepared above, was determined.
As subject animals 2 SHR were used which had been trained enough and been confirmed to be hypertensive spontaneously hypertensive rats (male, 13 months of age, the body weight of 400 to 440 g) per sample.
As an instrument for measuring the blood pressure a Programmed Electro-Sphygmomanometer PE-300 (Narco Co., U.S.A.) was used, and the blood pressure was indirectly measured on conscious rats.
An aqueous solution or suspension of a sample (35 mg/kg) was once force-fed into the stomach by means of a peroral probe.
An antihypertensive activity of part of the amino acid derivatives prepared above was determined.
As subject animals there were used 2 SHR which had been trained enough and been confirmed to be hypertensive spontaneously hypertensive rats (male, 13 months of age, the body weight of 400~440 g) per sample.
As an instrument for measuring the blood pressure there was used Programmed Electro-Sphygmomanometer PE-300 (Narco Co., U.S.A.), and the blood pressure was indirectly measured on conscious rats.
An antihypertensive activity of the product prepared above was determined.

For data set [2] the following is noted: 27.7° C.

This is an account of results in patent US4590178A (Ajinomoto Company, Incorporated, priority 1982, dated 1986).

Take `C[C@H](NP(=O)(OCc1ccccc1)OCc1ccccc1)C(=O)N1CCC[C@H]1C(=O)N1CCC[C@H]1C(=O)O` [Example 84, Dibenzylphosphoryl-L-alanyl-L-propyl-L-proline in the crystalline form]: in data set [1], the “Systolic Blood Pressure, Pretreatment” value came out at 219 mm Hg; the “Systolic Blood Pressure, 4 hrs after administration” value (from here on “Systolic Blood Pressure, 4 hrs”) is listed as 188 mm Hg; the “Δ Blood Pressure” value is given as -31 mm Hg. Further, the “.rho.Ka” value in data set [2] was 3.92. Besides, the “Median lethal dose (LD50)” value in the data set on rat was “more than 15 g/kg”. The “Median lethal dose (LD50)” value in the data set with mouse is recorded as “more than 15 g/kg”.
Turning to `N=C(N)NCCC[C@H](NP(=O)(Cc1ccccc1)Cc1ccccc1)C(=O)N1CCC[C@H]1C(=O)N1CCC[C@H]1C(=O)O` [Example 21, Dibenzylphosphoryl-L-arginyl-L-prolyl-L-proline], in data set [1], the “Systolic Blood Pressure, Pretreatment” value turned out to be 191 mm Hg; the “Systolic Blood Pressure, 4 hrs” value amounted to 167 mm Hg; the “Δ Blood Pressure” value is listed as -24 mm Hg.
Taken in the same sequence, the figures for “Diethylphosphoryl-L-alanyl-L-prolyl-L-proline L-arginine salt [Example 25]” were 183 mm Hg, 156 mm Hg and -27 mm Hg.
Taken in the same sequence, the figures for `CSCC[C@H](NP(=O)(OCc1ccccc1)OCc1ccccc1)C(=O)N1CCC[C@H]1C(=O)N1CCC[C@H]1C(=O)O.N=C(N)NCCC[C@H](N)C(=O)O` [Example 33, Dibenzylphosphoryl-L-methionyl-L-propyl-L-proline L-arginine salt] were 186 mm Hg, 168 mm Hg and -18 mm Hg.
With “Dibenzylphosphoryl-L-alanyl-L-prolyl-L-proline L-lysine salt [Example 24]”, in data set [1], the “Systolic Blood Pressure, Pretreatment” value was 192 mm Hg; the “Systolic Blood Pressure, 4 hrs” value is 161 mm Hg; the “Δ Blood Pressure” value is -31 mm Hg.
